Data taken from ChEMBL document CHEMBL1137250, “Novel 6-O-acylated vitamin C derivatives as hyaluronidase inhibitors with selectivity for bacterial lyases” (Bioorg Med Chem Lett, 2006).
Calls of active or inactive are those of the source. No cut-off for these calls is given here.

What was measured:
[1] = Inhibition of Streptococcus agalactiae 4755 hyaluronidase at pH 5.0
[2] = (§1) Inhibition of bovine hyaluronidase at pH 5.0; parameters: species or system Bos taurus
Streptococcus agalactiae [3] = assay: Inhibition of Streptococcus agalactiae 4755 hyaluronidase at 1100 uM at pH 5.0
Bos taurus [4] = organism: Bos taurus; assay: Inhibition of bovine hyaluronidase up to 1.1 mM at pH 5.0
Bos taurus [5] = organism: Bos taurus; assay: as §1
Bos taurus [6] = organism: Bos taurus; assay: Inhibition of bovine hyaluronidase up to 13 mM at pH 5.0
Streptococcus agalactiae [7] = assay: Inhibition of Streptococcus agalactiae 4755 hyaluronidase at 190 uM at pH 5.0
Bos taurus [8] = organism: Bos taurus; assay: Inhibition of bovine hyaluronidase up to 200 uM at pH 5.0
Streptococcus agalactiae [9] = assay: Inhibition of Streptococcus agalactiae 4755 hyaluronidase upto 13 mM at pH 5.0
Bos taurus [10] = organism: Bos taurus; assay: Inhibition of bovine hyaluronidase up to 100 mM at pH 5.0
[11] = Inhibition of Streptococcus pneumoniae hyaluronidase
Streptococcus agalactiae [12] = assay: Inhibition of Streptococcus agalactiae 4755 hyaluronidase upto 200 uM at pH 5.0
Bos taurus [13] = organism: Bos taurus; assay: Inhibition of bovine hyaluronidase at 1430 uM
Streptococcus agalactiae [14] = assay: Inhibition of Streptococcus agalactiae 4755 hyaluronidase at 2000 uM at pH 5.0
Streptococcus agalactiae [15] = assay: Inhibition of Streptococcus agalactiae 4755 hyaluronidase at 160 uM at pH 5.0

IC50 [1] [µM] | IC50 [2] [µM] | SMILES | also measured
61 | 188 | O=C(CCCCCOc1ccc(-c2ccccc2)cc1)OC[C@H](O)[C@H]1OC(=O)C(O)=C1O | 
8.4 | 71 | CCCCCCCCCCCCCC(=O)OC[C@H](O)[C@H]1OC(=O)C(O)=C1O | 
 |  | CC(C)(C)C(=O)OC[C@H](O)[C@H]1OC(=O)C(O)=C1O | inhibition (Streptococcus agalactiae [3]): 43%; Activity (Bos taurus [4]): inactive
76 | 210 | O=C(CCCCCOc1ccc(OCc2ccccc2)cc1)OC[C@H](O)[C@H]1OC(=O)C(O)=C1O | 
437 |  | O=C(CCCCCOCc1ccccc1)OC[C@H](O)[C@H]1OC(=O)C(O)=C1O | Activity (Bos taurus [5]): inactive
355 |  | O=C1O[C@H]([C@@H](O)CO)C(OCc2ccccc2)=C1OCc1ccccc1 | Activity (Bos taurus [6]): inactive
102 | 543 | O=C(CCCCCOCc1ccc(-c2ccccc2)cc1)OC[C@H](O)[C@H]1OC(=O)C(O)=C1O | 
772 |  | CCCCCCCC(=O)OC[C@H](O)[C@H]1OC(=O)C(O)=C1O | Activity (Bos taurus [5]): inactive
72 | 580 | CCCCCCCCCCC(=O)OC[C@H](O)[C@H]1OC(=O)C(O)=C1O | 
0.9 | 39 | CCCCCCCCCCCCCCCCCC(=O)OC[C@H](O)[C@H]1OC(=O)C(O)=C1O [ASCORBYL STEARATE] | 
 |  | CCCCCCCCCCCCCCCC(=O)OC[C@H](O)[C@H]1OC(=O)C2=C1OCCO2 | inhibition (Streptococcus agalactiae [7]): 32%; Activity (Bos taurus [8]): inactive
717 |  | O=C(CCCCCOc1ccccc1)OC[C@H](O)[C@H]1OC(=O)C(O)=C1O | Activity (Bos taurus [5]): inactive
102 | 1380 | CCCCCCCCCC(=O)OC[C@H](O)[C@H]1OC(=O)C(O)=C1O | 
 |  | COC1=C(OC)[C@@H]([C@@H](O)CO)OC1=O | Activity (Streptococcus agalactiae [9]): inactive; Activity (Bos taurus [6]): inactive
358 | 2010 | O=C(Cc1ccc(-c2ccccc2)cc1)OC[C@H](O)[C@H]1OC(=O)C(O)=C1O | 
14.3 | 96 | CCCCCCCCCCCCC(=O)OC[C@H](O)[C@H]1OC(=O)C(O)=C1O | 
6100 |  | O=C1O[C@H]([C@@H](O)CO)C(O)=C1O [ASCORBIC ACID] | Activity (Bos taurus [10]): inactive; IC50 [11]: 5800 µM
4.2 | 57 | CCCCCCCCCCCCCCCC(=O)OC[C@H](O)[C@H]1OC(=O)C(O)=C1O [ASCORBYL PALMITATE] | 
 |  | CCCCCCCCCCCCCCCC(=O)OC[C@H](O)[C@H]1OC(=O)C(OCc2ccccc2)=C1OCc1ccccc1 | Activity (Streptococcus agalactiae [12]): inactive; Activity (Bos taurus [8]): inactive
475 |  | CCCCCC(=O)OC[C@H](O)[C@H]1OC(=O)C(O)=C1O | Activity (Bos taurus [5]): inactive
47 | 208 | CCCCCCCCCCCC(=O)OC[C@H](O)[C@H]1OC(=O)C(O)=C1O | 
132 |  | O=C1O[C@H]([C@@H](O)COC(=O)c2ccccc2)C(O)=C1O | inhibition (Bos taurus [13]): 33%
 |  | O=C1O[C@H]([C@@H](O)CO)C2=C1OCCO2 | Activity (Bos taurus [6]): inactive; inhibition (Streptococcus agalactiae [14]): 24%
 |  | CCCCCCCCCCCCCCCC(=O)OC[C@H](O)[C@H]1OC(=O)C(OC)=C1OC | Activity (Bos taurus [8]): inactive; inhibition (Streptococcus agalactiae [15]): 5%
31 | 105 | O=C(CCCCCCCCCCOc1ccccc1)OC[C@H](O)[C@H]1OC(=O)C(O)=C1O | 
7.5 | 37 | O=C(CCCCCCCCCCOc1ccc(-c2ccccc2)cc1)OC[C@H](O)[C@H]1OC(=O)C(O)=C1O | 
280 |  | CCc1ccc(OCCCCCC(=O)OC[C@H](O)[C@H]2OC(=O)C(O)=C2O)cc1 | Activity (Bos taurus [5]): inactive
